Source: patent publication US12227488B2, “Small molecule degraders of Helios and methods of use” (DANA-FARBER CANCER INSTITUTE, INC., priority 2018, dated 2025)

How the values were obtained:
[1] = target: T1, IKZF1 (Homo sapiens, UniProt Q13422); assay: Cellular degradation assay, eGFP-IKZF1Δ fusion with mCherry reporter in Flp-In 293 cells; type: cell-based; conditions: for IKZF1 GFP/RFP Relative Abundance: 5 h incubation, n=1
T1 construct: expressed in transfected cells; host or cells: Flp-In 293
T1 sequence (Q13422 83-213 isoform Q13422-7 limits assumed): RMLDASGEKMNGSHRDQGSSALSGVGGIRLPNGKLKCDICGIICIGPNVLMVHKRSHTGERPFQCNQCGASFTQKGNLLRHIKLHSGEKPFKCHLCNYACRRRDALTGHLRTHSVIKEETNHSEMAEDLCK
T1 sequence (Q96SW2 whole entry partner, the tested form may be a part): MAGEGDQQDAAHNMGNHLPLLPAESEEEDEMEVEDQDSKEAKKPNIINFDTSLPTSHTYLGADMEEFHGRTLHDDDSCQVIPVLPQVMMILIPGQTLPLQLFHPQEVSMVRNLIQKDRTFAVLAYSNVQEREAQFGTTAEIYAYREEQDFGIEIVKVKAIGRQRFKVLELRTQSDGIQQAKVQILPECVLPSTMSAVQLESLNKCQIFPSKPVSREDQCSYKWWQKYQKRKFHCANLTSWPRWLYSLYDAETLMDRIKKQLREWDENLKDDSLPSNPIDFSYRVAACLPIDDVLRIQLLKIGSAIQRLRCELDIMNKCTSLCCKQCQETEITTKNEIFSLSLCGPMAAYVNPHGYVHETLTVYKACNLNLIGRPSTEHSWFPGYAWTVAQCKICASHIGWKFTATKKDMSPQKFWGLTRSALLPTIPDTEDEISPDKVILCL
T1 sequence (Q16531 2-1140 partner limits assumed): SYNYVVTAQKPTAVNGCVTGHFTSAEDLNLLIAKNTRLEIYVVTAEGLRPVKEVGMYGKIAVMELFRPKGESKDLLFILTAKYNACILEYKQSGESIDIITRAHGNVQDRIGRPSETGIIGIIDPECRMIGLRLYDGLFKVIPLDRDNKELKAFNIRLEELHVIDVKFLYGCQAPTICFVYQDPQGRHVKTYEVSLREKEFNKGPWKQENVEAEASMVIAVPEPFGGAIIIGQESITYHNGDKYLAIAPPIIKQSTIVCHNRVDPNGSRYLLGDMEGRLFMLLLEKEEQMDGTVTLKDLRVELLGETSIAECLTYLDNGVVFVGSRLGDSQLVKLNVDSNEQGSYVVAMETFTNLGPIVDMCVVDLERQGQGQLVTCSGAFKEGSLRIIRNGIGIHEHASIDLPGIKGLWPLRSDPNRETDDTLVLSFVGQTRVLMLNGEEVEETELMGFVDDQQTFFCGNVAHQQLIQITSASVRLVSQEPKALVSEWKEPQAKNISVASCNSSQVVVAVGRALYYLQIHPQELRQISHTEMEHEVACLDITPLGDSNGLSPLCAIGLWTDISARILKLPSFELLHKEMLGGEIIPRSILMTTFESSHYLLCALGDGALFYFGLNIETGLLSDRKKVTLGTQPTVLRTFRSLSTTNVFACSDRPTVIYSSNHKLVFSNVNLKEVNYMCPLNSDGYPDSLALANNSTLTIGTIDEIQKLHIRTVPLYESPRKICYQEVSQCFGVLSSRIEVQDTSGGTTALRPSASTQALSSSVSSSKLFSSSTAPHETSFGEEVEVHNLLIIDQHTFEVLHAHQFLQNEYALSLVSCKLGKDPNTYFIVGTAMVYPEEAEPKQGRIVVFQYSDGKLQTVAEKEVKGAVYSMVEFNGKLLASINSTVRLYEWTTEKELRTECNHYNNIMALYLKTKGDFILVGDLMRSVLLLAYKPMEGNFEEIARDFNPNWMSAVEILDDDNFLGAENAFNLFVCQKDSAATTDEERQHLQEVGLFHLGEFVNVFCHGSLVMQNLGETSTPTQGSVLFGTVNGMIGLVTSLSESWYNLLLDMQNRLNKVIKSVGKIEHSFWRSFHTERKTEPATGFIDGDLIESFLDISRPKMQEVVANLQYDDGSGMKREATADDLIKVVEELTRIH
Method in brief: (§1)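 DC50,5 h derived by variable-slope nonlinear fit of the per-well ratio of GFP-positive to mCherry-positive cells, imaged after 5 h compound exposure at 0.5% DMSO.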

[2] = system: IKZF2; assay: Cellular degradation assay, eGFP-IKZF2Δ fusion with mCherry reporter in Flp-In 293 cells; type: cell-based; conditions: for IKZF2 GFP/RFP Relative Abundance: 5 h incubation, n=1
Method in brief: as §1

[3] = target: T2, CRBN and Helios (IKZF2) (Homo sapiens, UniProt Q96SW2+Q9UKS7); assay: TR-FRET dimerization assay (CRBN-IKZF2 ternary complex formation); type: binding; conditions: n=1
T2 construct: His (N); Strep (N)
T2 sequence (Q96SW2 whole entry): as the sequence (Q96SW2 whole entry partner, the tested form may be a part) above
T2 sequence (Q9UKS7 whole entry): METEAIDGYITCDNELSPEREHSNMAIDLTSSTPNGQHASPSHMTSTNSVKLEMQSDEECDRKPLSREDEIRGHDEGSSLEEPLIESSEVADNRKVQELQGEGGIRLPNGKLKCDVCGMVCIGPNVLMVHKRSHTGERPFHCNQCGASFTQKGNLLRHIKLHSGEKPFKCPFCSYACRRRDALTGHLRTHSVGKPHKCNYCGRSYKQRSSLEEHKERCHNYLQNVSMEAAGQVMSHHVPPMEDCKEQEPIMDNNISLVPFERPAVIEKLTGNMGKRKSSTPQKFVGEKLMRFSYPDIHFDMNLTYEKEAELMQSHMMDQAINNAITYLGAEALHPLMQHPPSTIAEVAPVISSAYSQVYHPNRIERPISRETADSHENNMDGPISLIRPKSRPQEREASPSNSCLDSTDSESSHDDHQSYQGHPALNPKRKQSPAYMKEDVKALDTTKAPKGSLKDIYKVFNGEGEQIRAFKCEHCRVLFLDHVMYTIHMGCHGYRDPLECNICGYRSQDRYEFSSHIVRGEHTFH
Method in brief: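 Compound-induced IKZF2 recruitment to CRBN was read as the 520/490 nm TR-FRET ratio after 15 min at rt. The mix held biotinylated IKZF2, BODIPY-labeled CRBN bound to DDB1 lacking the BPB propeller, tracer Tb-streptavidin and compound titrations; n=1, from ≥3 technical replicates per well.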

[4] = target: GSPT1 (Homo sapiens, UniProt P15170+Q96SW2); assay: Cellular degradation assay, eGFP-GSPT1 fusion with mCherry reporter in Flp-In 293 cells; type: cell-based; design: expressed in transfected cells; host or cells: Flp-In 293; conditions: for GSPT1 GFP/RFP Relative Abundance: 5 h incubation, n=1
Chain of GSPT1 (P15170 whole entry, the tested form may be a part): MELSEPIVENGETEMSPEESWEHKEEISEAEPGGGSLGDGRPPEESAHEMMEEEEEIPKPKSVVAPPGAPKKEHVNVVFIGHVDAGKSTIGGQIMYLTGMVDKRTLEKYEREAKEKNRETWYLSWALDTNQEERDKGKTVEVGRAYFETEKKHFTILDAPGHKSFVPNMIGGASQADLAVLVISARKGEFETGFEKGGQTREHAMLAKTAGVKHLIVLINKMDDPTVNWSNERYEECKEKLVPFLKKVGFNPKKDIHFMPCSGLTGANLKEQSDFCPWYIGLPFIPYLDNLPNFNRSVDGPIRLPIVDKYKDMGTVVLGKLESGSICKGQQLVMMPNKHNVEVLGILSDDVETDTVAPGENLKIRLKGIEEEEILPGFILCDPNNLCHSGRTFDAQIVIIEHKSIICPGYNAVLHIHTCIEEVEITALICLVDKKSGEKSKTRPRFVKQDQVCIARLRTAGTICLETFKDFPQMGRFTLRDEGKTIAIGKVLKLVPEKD
Chain of GSPT1 (Q96SW2 whole entry, the tested form may be a part): as the sequence (Q96SW2 whole entry partner, the tested form may be a part) above
Chain of GSPT1 (Q16531 whole entry partner, the tested form may be a part): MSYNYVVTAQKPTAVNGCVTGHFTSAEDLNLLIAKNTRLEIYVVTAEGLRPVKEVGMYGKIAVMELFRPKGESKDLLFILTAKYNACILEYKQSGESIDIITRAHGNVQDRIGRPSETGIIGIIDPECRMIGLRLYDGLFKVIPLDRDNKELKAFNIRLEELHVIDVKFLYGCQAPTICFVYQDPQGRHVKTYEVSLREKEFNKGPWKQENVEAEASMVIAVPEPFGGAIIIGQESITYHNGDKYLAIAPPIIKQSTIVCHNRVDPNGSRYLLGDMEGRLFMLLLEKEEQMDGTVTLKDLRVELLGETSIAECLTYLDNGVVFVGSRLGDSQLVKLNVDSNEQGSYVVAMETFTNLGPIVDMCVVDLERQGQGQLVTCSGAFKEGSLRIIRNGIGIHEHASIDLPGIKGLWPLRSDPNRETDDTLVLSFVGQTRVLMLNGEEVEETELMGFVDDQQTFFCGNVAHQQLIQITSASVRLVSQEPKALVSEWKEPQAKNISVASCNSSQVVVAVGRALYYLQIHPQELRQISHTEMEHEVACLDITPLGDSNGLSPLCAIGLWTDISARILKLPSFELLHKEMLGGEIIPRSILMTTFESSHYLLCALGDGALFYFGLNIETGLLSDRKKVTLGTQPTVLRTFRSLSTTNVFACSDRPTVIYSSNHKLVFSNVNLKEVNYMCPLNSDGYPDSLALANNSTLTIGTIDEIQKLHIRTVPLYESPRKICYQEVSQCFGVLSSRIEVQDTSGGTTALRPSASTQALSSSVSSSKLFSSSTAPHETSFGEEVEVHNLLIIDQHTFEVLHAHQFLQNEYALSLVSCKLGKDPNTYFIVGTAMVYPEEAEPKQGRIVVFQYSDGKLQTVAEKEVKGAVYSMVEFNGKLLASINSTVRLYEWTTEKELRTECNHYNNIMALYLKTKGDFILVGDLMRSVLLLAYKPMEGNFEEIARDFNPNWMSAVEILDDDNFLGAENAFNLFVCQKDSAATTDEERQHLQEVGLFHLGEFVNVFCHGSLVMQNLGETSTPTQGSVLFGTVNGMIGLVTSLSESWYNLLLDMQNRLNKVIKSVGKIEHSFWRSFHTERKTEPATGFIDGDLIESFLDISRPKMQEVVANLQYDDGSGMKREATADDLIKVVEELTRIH
Procedure: IKZF1Δ, IKZF2Δ, GSPT1 and SALL4 ZnF1-2 were subcloned into mammalian pcDNA5/FRT Vector (Ampicillin and Hygromycin B resistant) modified to contain MCS-eGFP-P2A-mCherry. […] Following 2-3 passage cycle, FACS (FACSAria™ II, BD) was used to enrich for cells expressing eGFP and mCherry. Cells stably expressing the IKZF1Δ, IKZF2Δ, GSPT1 or SALL4 Znf1-2 GFP fusions with mCherry reporter were seeded at 30-50% confluency in 384-well plates with 50 μL FluoroBrite™ DMEM media (Thermo Fisher Scientific, A18967) containing 10% FBS per well a day before compound treatment. Compound titrations were dispensed using a D300e Digital Dispenser (HP), normalized to 0.5% DMSO, and incubated with cells for 5 hours.
The resulting images were analyzed using CellProfiler™. A series of image analysis steps (‘image analysis pipeline’) was constructed. First, the red and green channels were aligned and cropped to target the middle of each well (to avoid analysis of heavily clumped cells at the edges), and a background illumination function was calculated for both red and green channels of each well individually and subtracted to correct for illumination variations across the 384-well plate from various sources of error. An additional step was then applied to the green channel to suppress the analysis of large auto fluorescent artifacts and enhance the analysis of cell specific fluorescence by way of selecting for objects under a given size, 30 A.U., and with a given shape, speckles. mCherry-positive cells were then identified in the red channel filtering for objects between 8-60 pixels in diameter and using intensity to distinguish between clumped objects. The green channel was then segmented into GFP positive and negative areas and objects were labeled as GFP positive if at least 40% of it overlapped with a GFP positive area. The fraction of GFP-positive cells/mCherry-positive cells in each well was then calculated, and the green and red images were rescaled for visualization.
The degradation assay was performed as described above. […] Degradation was measured after 5 h of compound treatment and the concentrations that lead to half degradation at 5 h (DC50,5 h) were calculated using the nonlinear fit variable slope model (GraphPad Software).

[5] = compound concentration 2.00E−05
[6] = compound concentration 2.00E−06
[7] = compound concentration 2.00E−07
[8] = half degradation at 5 h (DC50,5 h), triplicate, 11 point dose response
[9] = compound concentration 6.6667E−05
[10] = compound concentration 6.6667E−06
[11] = compound concentration 6.6667E−07 (667 nM)

Compound: CCC(NC(=O)Nc1ccc(C)c(Cl)c1)c1cccc(NC2=CC(=O)N(C3CCC(=O)NC3=O)C2=O)c1 (centres unmarked) [Compound 74, 1-(3-chloro-4-methylphenyl)-3-(1-(3-((1-(2,6-dioxopiperidin-3-yl)-2,5-dioxo-2,5-dihydro-1H-pyrrol-3-yl)amino)phenyl)propyl)urea]
- IKZF1 GFP/RFP Relative Abundance [1, 5]: 0.096
- IKZF1 GFP/RFP Relative Abundance [1, 6]: 0.090
- IKZF1 GFP/RFP Relative Abundance [1, 7]: 0.114
- DC50 [1, 8]: 7.8 nM
- potency of IKZF2 degradation, in words ([2]; Table 3 summary): most potent against IKZF2
- IKZF2 GFP/RFP Relative Abundance [2, 5]: 0.021
- IKZF2 GFP/RFP Relative Abundance [2, 6]: 0.033
- IKZF2 GFP/RFP Relative Abundance [2, 7]: 0.032
- degradation selectivity IKZF2/IKZF1 ([2]; from DC50 values of Table 3): ~4 fold
- DC50 [2, 8]: 1.9 nM
- TR-FRET-IKZF2 (Normalized to CC-885) [3, 9]: 2.010
- TR-FRET-IKZF2 (Normalized to CC-885) [3, 10]: 1.914
- TR-FRET-IKZF2 (Normalized to CC-885) [3, 11]: 1.817
- DC50 [4, 8]: > 1000 nM

Compound: Cc1ccc(NC(=O)Cc2cccc(NC3=CC(=O)N(C4CCC(=O)NC4=O)C3=O)c2)cc1Cl (centres unmarked) [Compound 50, N-(3-chloro-4-methylphenyl)-2-(3-((1-(2,6-dioxopiperidin-3-yl)-2,5-dioxo-2,5-dihydro-1H-pyrrol-3-yl)amino)phenyl)acetamide]
- IKZF1 GFP/RFP Relative Abundance [1, 5]: 0.073
- IKZF1 GFP/RFP Relative Abundance [1, 6]: 0.068
- IKZF1 GFP/RFP Relative Abundance [1, 7]: 0.093
- IKZF2 GFP/RFP Relative Abundance [2, 5]: 0.188
- IKZF2 GFP/RFP Relative Abundance [2, 6]: 0.195
- IKZF2 GFP/RFP Relative Abundance [2, 7]: 0.267
- TR-FRET-IKZF2 (Normalized to CC-885) [3, 9]: 1.011
- TR-FRET-IKZF2 (Normalized to CC-885) [3, 10]: 0.889
- TR-FRET-IKZF2 (Normalized to CC-885) [3, 11]: 0.848
- GSPT1 GFP/RFP Relative Abundance [4, 5]: 0.645
- GSPT1 GFP/RFP Relative Abundance [4, 6]: 0.702
- GSPT1 GFP/RFP Relative Abundance [4, 7]: 0.643

Compound: O=C(Cc1ccc(Cl)c(Cl)c1)NCc1cccc(NC2=CC(=O)N(C3CCC(=O)NC3=O)C2=O)c1 (centres unmarked) [Compound 61, 2-(3,4-dichlorophenyl)-N-(3-((1-(2,6-dioxopiperidin-3-yl)-2,5-dioxo-2,5-dihydro-1H-pyrrol-3-yl)amino)benzyl)acetamide]
- IKZF1 GFP/RFP Relative Abundance [1, 5]: 0.111
- IKZF1 GFP/RFP Relative Abundance [1, 6]: 0.104
- IKZF1 GFP/RFP Relative Abundance [1, 7]: 0.103
- IKZF2 GFP/RFP Relative Abundance [2, 5]: 0.044
- IKZF2 GFP/RFP Relative Abundance [2, 6]: 0.045
- IKZF2 GFP/RFP Relative Abundance [2, 7]: 0.050
- TR-FRET-IKZF2 (Normalized to CC-885) [3, 9]: 1.465
- TR-FRET-IKZF2 (Normalized to CC-885) [3, 10]: 1.248
- TR-FRET-IKZF2 (Normalized to CC-885) [3, 11]: 1.201
- GSPT1 GFP/RFP Relative Abundance [4, 5]: 0.190
- GSPT1 GFP/RFP Relative Abundance [4, 6]: 0.466
- GSPT1 GFP/RFP Relative Abundance [4, 7]: 0.737

Compound: Cc1ccc(NC(=O)N(C)Cc2cccc(NC3=CC(=O)N(C4CCC(=O)NC4=O)C3=O)c2)cc1Cl (centres unmarked) [Compound 52, 3-(3-chloro-4-methylphenyl)-1-(3-((1-(2,6-dioxopiperidin-3-yl)-2,5-dioxo-2,5-dihydro-1H-pyrrol-3-yl)amino)benzyl)-1-methylurea]
- IKZF1 GFP/RFP Relative Abundance [1, 5]: 0.103
- IKZF1 GFP/RFP Relative Abundance [1, 6]: 0.092
- IKZF1 GFP/RFP Relative Abundance [1, 7]: 0.080
- IKZF2 GFP/RFP Relative Abundance [2, 5]: 0.058
- IKZF2 GFP/RFP Relative Abundance [2, 6]: 0.059
- IKZF2 GFP/RFP Relative Abundance [2, 7]: 0.062
- TR-FRET-IKZF2 (Normalized to CC-885) [3, 9]: 1.559
- TR-FRET-IKZF2 (Normalized to CC-885) [3, 10]: 1.367
- TR-FRET-IKZF2 (Normalized to CC-885) [3, 11]: 1.205
- GSPT1 GFP/RFP Relative Abundance [4, 5]: 0.308
- GSPT1 GFP/RFP Relative Abundance [4, 6]: 0.815
- GSPT1 GFP/RFP Relative Abundance [4, 7]: 0.787
